Measurements reported in patent publication US20100167329A1, “DEVICE FOR DRUG SCREENING” (Respiratorius AB, priority 2006, published 2010).

Tested on: small human bronchi
Assay: Repeated LTD4 control contractions of tissue sample in the perfusion chamber (long time stability)
Conditions: LTD4 10 nM, 30 min, alternating with LTD4 free solution 60 min; repeated cycles n=8; after 14 h of measurements; FIG. 2
Description: One embodiment of the present invention is illustrated in FIG. 1, wherein the chamber 1 is made out of titanium and has a volume of typically 5 mL. The chamber is mounted on a mounting piece 2 of silver, which contains means for controlling the temperature of the chamber. An inlet 3 and outlet 4 allow a continuous flow of a physiological solution through the chamber ensuring a constant concentration of the substances in the chamber. Tissue sample is placed on hooks 8 and the hooks are placed in the chamber in a suitable position so that the tissue sample is completely immersed in the liquid flowing through the chamber. One of the hooks is attached to a force transducer 9 and the other is a fixed hook. Test substances are injected in the liquid prior to the liquid entering the chamber. As the tissue sample reacts to the substances present in the liquid the force transducer register the tension in the tissue sample due to contraction or relaxation. The force transducer is preferably AME801, which is commercially available from Infineon technologies.
A description of embodiments of the device according to the invention is shown in the previous section. In FIG. 2 control contractions in small human bronchi exposed to repeated (n=8) cycles with LTD4 (10 nM, 30 min) and LTD4 free solution (60 min) for 14 hours, are shown. The error bars show a low variance and good repeatability. […]

Question: Which “original contraction of the bronchi remaining” value does the source give for `CCCCC/C=C\C\C=C/C=C/C=C/[C@@H](SC[C@H](N)C(=O)NCC(=O)O)[C@@H](O)CCCC(=O)O` [LTD4] here?
Answer: ~80%
